Data: patent US8481496B2, “Gold (III) complexes with oligopeptides functionalized with sulfur donors and use thereof as antitumor agents” (Universita' Degli Studi di Padova, priority 2009, dated 2013)

Experiments:
MDA-MB-231 tumor = details: MDA-MB-231 tumor-bearing nude mice; cited from earlier work
[1] = system: cisplatin-sensitive (2008) and -resistant (C13*) human ovarian carcinoma cells; details: cited from earlier work
[2] = system: human prostate carcinoma PC3 cells; assay: In vitro cytotoxicity, BrdU cell proliferation ELISA; type: cell-based; details: 72 h exposure, 0.05-10 μM
Experimental: Human prostate carcinoma PC3 cells (established from bone marrow metastasis and unresponsive to androgen treatment) were cultured in IMDM (Iscove's Modified Dulbecco's medium) supplemented with 10% heat-inactivated fetal bovine serum (FBS), penicillin (2 mg mL^−1), streptomycin (2 mg mL^−1), L-glutamine (0.1% w/v) at 37° C. in 5% CO2 and moisture-enriched atmosphere.
Before use, [Au^IIIX2(pdtc)] complexes (AUD6, AUD7, AUD8, AUD9) and cisplatin were dissolved in methyl sulfoxide (DMSO) just before the experiments. Calculated amounts of drug solutions were then added to the proper medium to a final concentration of 0.5% (v/v) DMSO which had no discernible effect on cell death.
For the cytotoxicity assay, cells (2.5×10^3 cells mL^−1) were seeded in 96-well flat-bottomed microplates in IMDM supplemented with 10% heat-inactivated FBS and incubated at 37° C. in a 5% CO2 atmosphere. The medium was then removed and replaced with a fresh one containing the compounds to be studied (previously dissolved in DMSO) at increasing concentrations (0.05-10 μM), thus exposing cells to the investigated compounds for 72 h. Triplicate cultures were established for each treatment. Cell viability was determined by a cell proliferation ELISA 5-bromo-2′-deoxyuridine colorimetric kit, according to the manufacturer's protocol. […] For comparison purposes, the cytotoxicity of cisplatin was evaluated under the same experimental conditions.

[3] = target: T1, MDA-MB-231 whole cell extract (Homo sapiens, UniProt P28074); assay: Inhibition of proteasomal chymotrypsin-like activity, whole cell extract; type: biochemical; details: for potency relative to previously investigated Au(III)-dithiocarbamato analogues: MDA-MB-231 whole cell extract; for inhibition of proteasomal chymotrypsin-like activity: MDA-MB-231 whole cell extract (10 μg), 0.1-25 μM, 2 h, FIG. 3B
T1 construct: MDA-MB-231 whole cell extract (10 μg); endogenous in cells; host or cells: MDA-MB-231 whole cell extract
T1 sequence (P28074 60-263): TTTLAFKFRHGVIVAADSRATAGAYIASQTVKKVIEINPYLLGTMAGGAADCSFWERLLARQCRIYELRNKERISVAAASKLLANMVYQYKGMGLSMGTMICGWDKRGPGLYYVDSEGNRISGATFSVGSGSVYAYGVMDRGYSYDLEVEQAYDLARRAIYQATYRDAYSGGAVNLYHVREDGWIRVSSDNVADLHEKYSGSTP
Experimental: (§1) To investigate whether these compounds could also have the proteasome as a biological target, purified rabbit 20S proteasome (35 ng) or MDA-MB-231 whole cell extract (10 μg) were incubated with 20 μM of the substrate (for proteasomal chymotryptic (CT) activity) in 100 μL assay buffer (20 mmol L^−1 Tris-HCl (pH 7.5) in the presence of the compounds to be studied (previously dissolved in DMSO) at increasing concentrations (0.1-25 μM) or equivalent volume of neat DMSO as control. After 2 h incubation at 37° C., inhibition of each proteasomal chymotryptic activity was measured as previously described [V. Milacic et al. 2006, ref. cit.].

[4] = system: estrogen receptor α-negative human breast cancer MDA-MB-231 cells; assay: Growth inhibition, MTT assay; type: cell-based; details: 1-50 μM, 22 h, FIG. 2
Experimental: The growth-inhibitory effect of AUD6 and AUD8 on estrogen receptor α-negative human breast cancer MDA-MB-231 cells has been also evaluated. Cells were grown in RPMI 1640 medium supplemented with 10% heat-inactivated fetal bovine serum, penicillin (100 units mL^−1), streptomycin (100 μg mL^−1), L-glutamine (0.1% w/v) at 37° C. in 5% CO2 and moisture-enriched atmosphere. For the cytotoxicity assay, cells were seeded in 96-well microplates in RPMI 1640 medium and grown to 70% to 80% confluency followed by addition of the compounds to be studied (previously dissolved in DMSO) at increasing concentrations (1-50 μM) and incubated at 37° C. in a 5% CO2 atmosphere, thus exposing cells to the investigated compounds for 22 h. Triplicate cultures were established for each treatment. Cell respiration, as an indicator of cell viability, was determined by the mitochondrial-dependent reduction of MTT (3-(4,5-dimethylthiazol-2-yl)-2,5-diphenyltetrazolium bromide) to formazan as previously described [V. Milacic, D. Chen, L. Ronconi, K. R. Landis-Piwowar, D. Fregona, Q. P. Dou, Cancer Res. 2006, 66, 10478-10486]. Cell viability was calculated by dividing the average absorbance of the cells treated with the test compounds by that of the control, the standard deviation being estimated from the average of three trials.

[5] = system: human breast cancer (MDA-MB-231) xenografts; assay: Human breast tumor xenograft experiments; type: in vivo; details: 1.0 mg kg−1 s.c. daily, after 13 days, female athymic nude mice
Experimental: Estrogen receptor α-negative human breast cancer MDA-MB-231 cells were grown in RPMI 1640 medium supplemented with 10% fetal bovine serum, penicillin (100 units mL^−1), and streptomycin (100 μg mL^−1) at 37° C. in 5% CO2 and moisture-enriched atmosphere.
Five week-old female athymic nude mice were purchased from Taconic Research Animal Services (Hudson) and housed according to protocols approved by the Institutional Laboratory Animal Care and Use Committee of Wayne State University. MDA-MB-231 cells (5.0×10^6 cells mL^−1 suspended in 0.1 mL of serum-free RPMI 1640 medium) were inoculated subcutaneously (s.c.) in right flank of each mouse (four mice per group). When tumors reached the size of ca. 120 mm^3, mice were randomly grouped and treated daily with s.c. injection of either 1.0 mg kg^−1 of AUD6 or AUD8, or vehicle [10% DMSO, 20% Cremophore/ethanol (3:1) and 70% PBS]. Tumor size was measured every other day using calipers and their volumes were calculated according to the formula width^2×length/2. Mice have being treated for 13 days. Initial tumor growth inhibition was analyzed.

[6] = system: purified rabbit 20S proteasome; assay: Inhibition of proteasomal chymotrypsin-like activity, purified proteasome; type: biochemical; details: for potency relative to previously investigated Au(III)-dithiocarbamato analogues: purified rabbit 20S proteasome; for inhibition of proteasomal chymotrypsin-like activity: purified rabbit 20S proteasome (35 ng), 0.1-25 μM, 2 h, FIG. 3A
Experimental: as §1

[7] = system: proteasome target proteins, such as Bax and p27; assay: Accumulation of proteasome target proteins; type: cell-based; details: preliminary

In the case of `CN(C)C1=[S+][Au-]([Br])([Br])[S]1` [[Au^IIIBr2(DMDT)]], the “inhibition of tumor growth” value (MDA-MB-231 tumor) is given as “significant inhibition of tumor growth”.

In the case of `CCOC(=O)CN(C)C(=S)[S][Pt][Cl].c1ccncc1` [[Pt^IICl(ESDT)(py)]], the “inhibition of tumor cell growth compared with cisplatin” value ([1]; 2008 and C13* cells) is given as “greater inhibition of tumor cell growth than cisplatin” and the “cross-resistance in C13* cells” value ([1]; cisplatin-resistant C13* cells) is given as “complete lack of cross-resistance”.

Molecule `N.N.[Cl][Pt][Cl]` [cisplatin, cis-dichlorodiamminoplatinum(II), reference compound] has an IC50 [2] of 2.6 ± 0.2 µM.

In the case of [Au^IIIBr2((t-Bu)O-Aib-Sar-dtc)] [AUD8], the “potency relative to previously investigated Au(III)-dithiocarbamato analogues” value [3] is reported as “two-fold more potent”, the “inhibition of proteasomal chymotrypsin-like activity” value [3] is reported as “concentration-dependent” and the “growth-inhibitory effect on MDA-MB-231 cells” value [4] is reported as “slightly higher activity”. For the same molecule, the tumor growth inhibition [5] was > 90%, the “potency relative to previously investigated Au(III)-dithiocarbamato analogues” value [6] was “two-fold more potent” and the “inhibition of proteasomal chymotrypsin-like activity” value [6] was “concentration-dependent”. The IC50 [2] was 0.55 ± 0.05 µM and the “accumulation of proteasome target proteins (Bax, p27)” value [7] was “induce accumulation of proteasome target proteins”.

For [Au^IIIBr2((t-Bu)O-Gly-Sar-dtc)] [AUD6], the “potency relative to previously investigated Au(III)-dithiocarbamato analogues” value [3] was “two-fold more potent”, the “inhibition of proteasomal chymotrypsin-like activity” value [3] was “concentration-dependent” and the tumor growth inhibition [5] was “ca. 33%”. The “potency relative to previously investigated Au(III)-dithiocarbamato analogues” value [6] was “two-fold more potent”, the “inhibition of proteasomal chymotrypsin-like activity” value [6] was “concentration-dependent” and the IC50 [2] was 0.85 ± 0.07 µM. For the same molecule, the “accumulation of proteasome target proteins (Bax, p27)” value [7] was “induce accumulation of proteasome target proteins”.

[Au^IIICl2((t-Bu)O-Aib-Sar-dtc)] [AUD9] showed an IC50 [2] of 0.75 ± 0.06 µM.

In the case of [Au^IIICl2((t-Bu)O-Gly-Sar-dtc)] [AUD7], the IC50 [2] is reported as 1 ± 0.1 µM.
